Assay [1] has as its target Human mTOR (FLAG-TOR) (Homo sapiens, UniProt P42345). In words: mTOR kinase assay (DELFIA format, purified enzyme). Format: biochemical. Particulars: read-out: IC50 mTOR.
The target in assay [2] is PI3K-α (Homo sapiens, UniProt P42336). In words: PI3K-alpha fluorescence polarization assay. Particulars: read-out: IC50 PI3Kα. (In general: Fluorescence polarisation rises when a labelled molecule tumbles more slowly, as on binding a larger partner.)
In assay [3] the target is PI3K-γ (Homo sapiens, UniProt P48736). In words: PI3K-gamma fluorescence polarization assay.
PI3K-γ, sequence (P48736 whole entry, species assumed): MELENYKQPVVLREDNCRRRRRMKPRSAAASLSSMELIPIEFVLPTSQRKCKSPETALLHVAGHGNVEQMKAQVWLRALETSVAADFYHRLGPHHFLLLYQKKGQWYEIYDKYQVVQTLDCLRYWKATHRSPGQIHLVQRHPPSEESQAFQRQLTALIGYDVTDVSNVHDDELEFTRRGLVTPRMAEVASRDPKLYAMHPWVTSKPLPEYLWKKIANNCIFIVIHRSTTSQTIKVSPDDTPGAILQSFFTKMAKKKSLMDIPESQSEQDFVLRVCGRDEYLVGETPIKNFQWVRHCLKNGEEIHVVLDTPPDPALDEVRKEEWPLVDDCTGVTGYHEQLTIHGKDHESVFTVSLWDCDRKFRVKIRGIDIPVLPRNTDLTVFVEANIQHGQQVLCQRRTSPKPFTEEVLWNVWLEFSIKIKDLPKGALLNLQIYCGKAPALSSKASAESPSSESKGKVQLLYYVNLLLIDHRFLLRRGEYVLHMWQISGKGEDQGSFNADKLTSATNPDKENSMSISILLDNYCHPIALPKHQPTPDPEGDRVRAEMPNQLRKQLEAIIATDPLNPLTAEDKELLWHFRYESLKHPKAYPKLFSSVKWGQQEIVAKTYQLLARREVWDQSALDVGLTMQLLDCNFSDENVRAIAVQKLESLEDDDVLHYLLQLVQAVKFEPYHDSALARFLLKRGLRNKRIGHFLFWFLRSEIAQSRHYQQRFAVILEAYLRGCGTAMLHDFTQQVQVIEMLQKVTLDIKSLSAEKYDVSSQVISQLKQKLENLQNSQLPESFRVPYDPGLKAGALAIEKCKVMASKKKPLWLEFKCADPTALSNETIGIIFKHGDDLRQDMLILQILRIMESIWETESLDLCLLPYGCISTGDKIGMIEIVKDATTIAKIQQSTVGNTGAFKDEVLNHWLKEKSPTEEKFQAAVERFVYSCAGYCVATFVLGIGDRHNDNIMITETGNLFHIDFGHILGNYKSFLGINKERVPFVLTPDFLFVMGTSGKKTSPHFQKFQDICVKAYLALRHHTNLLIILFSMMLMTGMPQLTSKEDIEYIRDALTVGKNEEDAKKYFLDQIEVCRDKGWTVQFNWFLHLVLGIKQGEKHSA

Each structure is given as a SMILES string. Read-outs that look alike come from different tables or passages of the source.

Human mTOR (FLAG-TOR), sequence (P42345 1360-2549 limits assumed): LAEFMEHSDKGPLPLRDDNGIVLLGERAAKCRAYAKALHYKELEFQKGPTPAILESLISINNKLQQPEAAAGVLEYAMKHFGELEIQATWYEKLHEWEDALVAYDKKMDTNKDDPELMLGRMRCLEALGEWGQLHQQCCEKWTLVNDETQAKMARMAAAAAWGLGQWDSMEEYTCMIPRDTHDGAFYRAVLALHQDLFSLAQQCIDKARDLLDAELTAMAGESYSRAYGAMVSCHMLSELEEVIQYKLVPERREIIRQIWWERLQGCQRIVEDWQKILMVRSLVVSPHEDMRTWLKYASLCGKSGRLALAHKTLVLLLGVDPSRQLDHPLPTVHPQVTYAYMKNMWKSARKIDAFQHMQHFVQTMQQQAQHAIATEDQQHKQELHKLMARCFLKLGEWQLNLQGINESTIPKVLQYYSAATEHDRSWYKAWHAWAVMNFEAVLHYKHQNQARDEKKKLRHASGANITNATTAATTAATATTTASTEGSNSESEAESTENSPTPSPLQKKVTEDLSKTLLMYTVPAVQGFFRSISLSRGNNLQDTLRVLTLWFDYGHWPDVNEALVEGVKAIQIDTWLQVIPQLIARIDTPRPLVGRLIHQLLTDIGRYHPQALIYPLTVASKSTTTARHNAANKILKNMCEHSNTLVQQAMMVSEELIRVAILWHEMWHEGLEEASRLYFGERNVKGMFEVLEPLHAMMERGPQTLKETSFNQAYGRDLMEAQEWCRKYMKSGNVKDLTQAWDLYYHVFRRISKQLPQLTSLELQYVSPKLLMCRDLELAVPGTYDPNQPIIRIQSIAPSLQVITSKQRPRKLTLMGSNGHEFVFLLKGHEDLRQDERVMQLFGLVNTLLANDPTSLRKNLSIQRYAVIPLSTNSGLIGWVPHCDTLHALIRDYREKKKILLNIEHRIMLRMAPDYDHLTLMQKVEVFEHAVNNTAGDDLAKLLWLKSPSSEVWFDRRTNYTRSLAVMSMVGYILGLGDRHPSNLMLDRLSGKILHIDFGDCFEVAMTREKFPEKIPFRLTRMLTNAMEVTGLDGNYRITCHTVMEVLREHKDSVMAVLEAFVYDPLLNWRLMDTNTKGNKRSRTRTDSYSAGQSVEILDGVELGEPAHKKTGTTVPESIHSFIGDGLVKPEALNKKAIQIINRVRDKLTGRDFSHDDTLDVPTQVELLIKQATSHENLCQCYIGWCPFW
PI3K-α, sequence (P42336 whole entry, species assumed): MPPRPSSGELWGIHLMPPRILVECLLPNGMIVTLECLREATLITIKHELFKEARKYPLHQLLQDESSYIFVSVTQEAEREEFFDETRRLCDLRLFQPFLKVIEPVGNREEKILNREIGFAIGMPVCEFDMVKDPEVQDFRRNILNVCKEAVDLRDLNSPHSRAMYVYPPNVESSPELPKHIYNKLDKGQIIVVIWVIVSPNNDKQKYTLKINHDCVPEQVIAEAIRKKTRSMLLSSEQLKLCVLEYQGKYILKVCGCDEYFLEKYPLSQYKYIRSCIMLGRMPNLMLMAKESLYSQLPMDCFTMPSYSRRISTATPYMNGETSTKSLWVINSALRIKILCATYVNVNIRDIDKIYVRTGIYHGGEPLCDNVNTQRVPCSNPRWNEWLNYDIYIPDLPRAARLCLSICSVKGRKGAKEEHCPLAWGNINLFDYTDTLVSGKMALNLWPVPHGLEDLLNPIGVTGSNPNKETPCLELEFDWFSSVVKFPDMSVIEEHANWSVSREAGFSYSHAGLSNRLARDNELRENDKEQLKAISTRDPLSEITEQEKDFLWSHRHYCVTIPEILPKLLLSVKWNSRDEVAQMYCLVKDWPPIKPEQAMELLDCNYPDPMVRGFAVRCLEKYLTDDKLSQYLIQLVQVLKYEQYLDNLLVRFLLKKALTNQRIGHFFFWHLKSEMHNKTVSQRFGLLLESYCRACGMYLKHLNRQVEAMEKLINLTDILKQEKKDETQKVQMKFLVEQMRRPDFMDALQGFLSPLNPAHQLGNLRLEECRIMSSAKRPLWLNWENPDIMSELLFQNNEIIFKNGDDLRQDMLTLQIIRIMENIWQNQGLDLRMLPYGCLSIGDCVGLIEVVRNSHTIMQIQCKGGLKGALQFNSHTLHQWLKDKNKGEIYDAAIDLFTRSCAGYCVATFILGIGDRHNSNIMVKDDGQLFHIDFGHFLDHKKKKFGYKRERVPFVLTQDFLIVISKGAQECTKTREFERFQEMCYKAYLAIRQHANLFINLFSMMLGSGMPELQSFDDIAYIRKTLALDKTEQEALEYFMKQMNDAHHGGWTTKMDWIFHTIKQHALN
PI3K-α, sequence (P27986 whole entry partner, species assumed): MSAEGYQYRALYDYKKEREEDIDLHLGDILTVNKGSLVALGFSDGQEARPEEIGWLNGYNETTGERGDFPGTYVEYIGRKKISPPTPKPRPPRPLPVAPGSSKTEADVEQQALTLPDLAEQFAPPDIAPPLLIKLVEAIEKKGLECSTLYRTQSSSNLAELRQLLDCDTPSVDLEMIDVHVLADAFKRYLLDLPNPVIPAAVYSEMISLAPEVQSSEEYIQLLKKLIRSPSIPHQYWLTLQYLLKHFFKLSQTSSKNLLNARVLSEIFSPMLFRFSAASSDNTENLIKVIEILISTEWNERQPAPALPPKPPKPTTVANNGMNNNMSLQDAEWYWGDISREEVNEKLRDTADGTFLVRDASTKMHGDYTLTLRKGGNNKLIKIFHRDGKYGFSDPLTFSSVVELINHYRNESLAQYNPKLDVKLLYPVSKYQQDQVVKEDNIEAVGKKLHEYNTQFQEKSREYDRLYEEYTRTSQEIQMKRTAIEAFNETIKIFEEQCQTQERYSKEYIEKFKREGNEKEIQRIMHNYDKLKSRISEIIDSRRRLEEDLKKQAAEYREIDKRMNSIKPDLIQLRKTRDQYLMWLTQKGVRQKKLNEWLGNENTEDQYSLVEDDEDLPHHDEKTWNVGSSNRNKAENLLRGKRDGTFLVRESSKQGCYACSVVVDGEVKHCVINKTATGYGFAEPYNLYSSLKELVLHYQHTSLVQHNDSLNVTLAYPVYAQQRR

Consider `CC(C)N1CCCN(c2nc(-c3ccc(NC(=O)Nc4ccc(C(=O)N5CCN(C)CC5)cc4)cc3)nc(N3CCOCC3)n2)CC1` [Example 657, 1-(4-{4-[4-(1-methylethyl)-1,4-diazepan-1-yl]-6-morpholin-4-yl-1,3,5-triazin-2-yl}phenyl)-3-{4-[(4-methylpiperazin-1-yl)carbonyl]phenyl}urea], for which the IC50 in assay [1] came out at 385 nM; in assay [2], 11.5 nM; in assay [3] (read-out: IC50 PI3Kγ) it was 128 nM.

Take `CC(=O)NC1CCN(c2nc(-c3ccc(NC(=O)Nc4ccncc4)cc3)nc(N3CCOCC3)n2)CC1` [Example 658, N-[1-(4-morpholin-4-yl-6-{4-[(pyridin-4-ylcarbamoyl)amino]phenyl}-1,3,5-triazin-2-yl)piperidin-4-yl]acetamide]: the IC50 in assay [1] is 20 nM; in assay [2] it was 41.5 nM; in assay [3] (read-out: IC50 PI3Kγ) it was 265 nM.

As for `CC(=O)NC1CCN(c2nc(-c3ccc(NC(=O)Nc4ccc(C(=O)O)cc4)cc3)nc(N3CCOCC3)n2)CC1` [Example 659, 4-{[(4-{4-[4-(acetylamino)piperidin-1-yl]-6-morpholin-4-yl-1,3,5-triazin-2-yl}phenyl)carbamoyl]amino}benzoic acid], the values for the IC50 in assay [1], in assay [2] and in assay [3] were 720 nM, 3620 nM and at least 10000 nM, respectively.

Regarding `CC(C)N1CCCN(c2nc(-c3ccc(NC(=O)Nc4ccc(C(=O)NCCN(C)C)cc4)cc3)nc(N3CCOCC3)n2)CC1` [Example 660, N-[2-(dimethylamino)ethyl]-4-{[(4-{4-[4-(1-methylethyl)-1,4-diazepan-1-yl]-6-morpholin-4-yl-1,3,5-triazin-2-yl}phenyl)carbamoyl]amino}benzamide], the concentration for half-maximal inhibition (IC50) in assay [1] was determined as 305 nM; in assay [2], 7.5 nM; in assay [3] (read-out: IC50 PI3Kγ) it was 168 nM.

As to `CC(=O)NC1CCN(C(=O)c2ccc(NC(=O)Nc3ccc(-c4nc(N5CCOCC5)nc(N5CCCN(C(C)C)CC5)n4)cc3)cc2)CC1` [Example 661, N-{1-[(4-{[(4-{4-[4-(1-methylethyl)-1,4-diazepan-1-yl]-6-morpholin-4-yl-1,3,5-triazin-2-yl}phenyl)carbamoyl]amino}phenyl)carbonyl]piperidin-4-yl}acetamide], the concentration for half-maximal inhibition (IC50) came to 580 nM in assay [1], 56.5 nM in assay [2] and 462 nM in assay [3] (read-out: IC50 PI3Kγ).

Take `CCN1CCN(C(=O)c2ccc(NC(=O)Nc3ccc(-c4nc(N5CCOCC5)nc(N5CCCN(C(C)C)CC5)n4)cc3)cc2)CC1` [Example 662, 1-{4-[(4-ethylpiperazin-1-yl)carbonyl]phenyl}-3-(4-{4-[4-(1-methylethyl)-1,4-diazepan-1-yl]-6-morpholin-4-yl-1,3,5-triazin-2-yl}phenyl)urea]: the IC50 in assay [1] turned out to be 770 nM; in assay [2] it was 34.3 nM; in assay [3] (read-out: IC50 PI3Kγ), 197 nM.

On to `CC(C)N1CCN(C(=O)c2ccc(NC(=O)Nc3ccc(-c4nc(N5CCOCC5)nc(N5CCCN(C(C)C)CC5)n4)cc3)cc2)CC1` [Example 663, 1-(4-{4-[4-(1-methylethyl)-1,4-diazepan-1-yl]-6-morpholin-4-yl-1,3,5-triazin-2-yl}phenyl)-3-(4-{[4-(1-methylethyl)piperazin-1-yl]carbonyl}phenyl)urea], for which the IC50 came to 590 nM in assay [1], 47.3 nM in assay [2] and 296 nM in assay [3] (read-out: IC50 PI3Kγ).

For `CCCCN1CCN(C(=O)c2ccc(NC(=O)Nc3ccc(-c4nc(N5CCOCC5)nc(N5CCCN(C(C)C)CC5)n4)cc3)cc2)CC1` [Example 665, 1-{4-[(4-butylpiperazin-1-yl)carbonyl]phenyl}-3-(4-{4-[4-(1-methylethyl)-1,4-diazepan-1-yl]-6-morpholin-4-yl-1,3,5-triazin-2-yl}phenyl)urea], the values for the IC50 in assay [1], in assay [2] and in assay [3] (read-out: IC50 PI3Kγ) were 445 nM, 71 nM and 284 nM, respectively.

In the case of `COC(=O)c1ccc(NC(=O)Nc2ccc(-c3nc(N4CCOCC4)nc(N4C5CCC4COC5)n3)cc2)cc1` [Example 693, methyl 4-[({4-[4-morpholin-4-yl-6-(3-oxa-8-azabicyclo[3.2.1]oct-8-yl)-1,3,5-triazin-2-yl]phenyl}carbamoyl)amino]benzoate], the half-maximal inhibitory concentration (IC50) amounted to 1.35 nM in assay [1], 69 nM in assay [2] and 289 nM in assay [3] (read-out: IC50 PI3Kγ).

What is called IC50 is the concentration that gives 50% inhibition.

The values are drawn from patent US20090304692A1, “TRIAZINE COMPOUNDS AS PI3 KINASE AND MTOR INHIBITORS” (Wyeth, priority 2008, published 2009).
